Values quoted from earlier work in patent publication US20250230139A1, “Novel Process and Intermediate for the Preparation of Apalutamide” (BDR Lifesciences Private Limited, priority 2022, published 2025).

Legend:
[1] = strong base (pH>11)
[2] = system: prostate cancer; settings: mouse xenograft models of prostate cancer
[3] = acidic carboxamide moiety
[4] = powder

CNC(=O)c1ccc(N2C(=S)N(c3cnc(C#N)c(C(F)(F)F)c3)C(=O)C23CCC3)cc1F [Apalutamide, 4-[7-[6-cyano-5-(trifluoromethyl)pyridin-3-yl]-8-oxo-6-thioxo-5,7-diazaspiro[3.4]octan-5-yl]-2-fluoro-N-methylbenzamide]
stability to strong base [1]: unstable | apoptosis [2]: increased apoptosis | tumor cell proliferation [2]: decreased tumor cell proliferation | tumor volume [2]: decreased tumor volume | dissociation constant pKa [3]: 9.7 | solubility in aqueous media (aqueous media over a wide range of pH values): practically insoluble | solubility in organic solvents (organic solvents): practically insoluble to very soluble | hygroscopicity [4]: non-hygroscopic
